Assay: stability of absorbance spectrum under intense pulsed light (IPL) flashes
Format: physicochemical
Conditions: ten pulses at the maximum power of the flash lamp
Description: Another aspect of the present invention is that controlled dissociation of the sodium-copper-chlorophyllin complex can occur in part because of the high stability of this complex. Normally, inorganic and organic copper salts, including copper-peptides, are not very stable with regard to binding copper. The inherent stability and lack of reactivity of sodium-copper-chlorophyllin is essential for this process to work successfully. […] Stability was monitored by measurement of the dye's full absorbance spectrum, since degradation of the dye would be detectable as changes in the absorbance spectrum.

With sodium-copper-chlorophyllin the “absorbance spectrum after IPL exposure (thermal and light stability)” value was “remained unchanged”.

Source: US8298555B2, “Color cosmetic compositions for topical anti-aging skin treatment” (Discovery Partners, LLC, priority 2007, dated 2012)
